In patent US20240352055A1, “PROCESS FOR THE MANUFACTURE OF (2S,3S,4S,5R,6S)-3,4,5-TRIHYDROXY-6-(((4AR,10AR)-7-HYDROXY-1-PROPYL-1,2,3,4,4A,5,10,10A-OCTAHYDROBENZO[G]QUINOLIN-6-YL)OXY)TETRAHYDRO-2H-PYRAN-2-CARBOXYLIC ACID” (H. LUNDBECK A/S, priority 2019, published 2024):
Like-named read-outs stand apart in the source and are kept apart here.

Key:
[1] = target: human D1 receptor (Homo sapiens (Human), UniProt P21728); assay: Dopamine D1 receptor agonism, HTRF cAMP assay; type: cell-based
Method: Dopamine D1 receptor agonism was measured using a HTRF cAMP from CisBio using the protocol developed by HD Biosciences (China). Briefly, the assay is a homogeneous time resolved-fluorescence resonance energy transfer (HTRF) assay that measures production of cAMP by cells in a competitive immunoassay between native cAMP produced by cells and cAMP-labeled with XL-665. A cryptate-labeled anti-cAMP antibody visualizes the tracer. The assay was performed in accordance with instructions from manufacturer.
Test compounds were added to wells of microplates (384 format). HEK-293 cells expressing the human D1 receptor were plated at 1000 cells/well and incubated 30 minutes at room temperature. cAMP-d2 tracer was added to wells and followed by addition of Anti-cAMP antibody-cryptate preparation and incubated for 1 hour at room temperature in dark. HTRF cAMP was measured by excitation of the donor with 337 nm laser (the “TRF light unit”) and subsequent (delay time 100 microseconds) measurement of cryptate and d2 emission at 615 nm and 665 nm over a time window of 200 microseconds with a 2000 microseconds time window between repeats/100 flashes). HTRF measurements were performed on an Envision microplate reader (PerkinElmer). The HTRF signal was calculated as the emission-ratio at 665 nm over 615 nm. The HTRF ratio readout for test compounds was normalized to […] and 100% stimulation using control wells with DMSO-solvent or 30 μM dopamine. Test compound potency (EC50) was estimated by nonlinear regression using the sigmoidal dose-response (variable slope) using Xlfit 4 (IDBS, Guildford, Surrey, UK, model 205).
y=(A+((B−A)/(1+((C/x)^D))))
(§1) where y is the normalized HTRF ratio measurement for a given concentration of test compound, x is the concentration of test compound, A is the estimated efficacy at infinite compound dilution, and B is the maximal efficacy. C is the EC50 value and D is the Hill slope coefficient. EC50 estimates were obtained from an independent experiment and the logarithmic average was calculated.

[2] = target: human D2 receptor (Homo sapiens (Human), UniProt P14416); assay: Dopamine D2 receptor agonism, calcium mobilization assay; type: cell-based; conditions: HEK293/G15 cells expressing human D2 receptor; calcium flux
Sequence of human D2 receptor (P14416 whole entry): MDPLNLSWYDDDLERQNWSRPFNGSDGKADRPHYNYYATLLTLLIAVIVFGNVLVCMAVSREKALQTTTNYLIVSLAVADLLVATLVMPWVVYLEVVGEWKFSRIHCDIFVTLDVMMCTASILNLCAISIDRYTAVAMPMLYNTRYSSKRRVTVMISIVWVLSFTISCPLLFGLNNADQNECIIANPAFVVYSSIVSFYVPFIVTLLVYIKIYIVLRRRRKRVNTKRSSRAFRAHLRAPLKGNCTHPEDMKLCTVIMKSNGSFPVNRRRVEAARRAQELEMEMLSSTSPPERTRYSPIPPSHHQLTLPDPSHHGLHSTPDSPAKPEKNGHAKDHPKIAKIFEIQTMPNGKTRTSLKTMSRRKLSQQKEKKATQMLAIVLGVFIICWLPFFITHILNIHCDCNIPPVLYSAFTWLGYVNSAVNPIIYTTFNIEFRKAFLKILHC
Method: Dopamine D2 receptor agonism was measured using a calcium mobilization assay protocol developed by HD Biosciences (China). Briefly, HEK293/G15 cells expressing human D2 receptor were plated at a density of 15000 cells/well in clear-bottomed, Matrigel-coated 384-well plates and grown for 24 hours at 37° C. in the presence of 5% CO2. The cells were incubated with calcium-sensitive fluorescent dye, Fluo8, for 60-90 minutes at 37° C. in the dark. Test compounds were prepared at 3-fold concentrated solution in 1×HBSS buffer with Ca^2. and Mg^2+. Calcium Flux signal was immediately recorded after compounds were added from compound plate to cell plate at FLIPR (Molecular Devices). The fluorescence data were normalized to yield responses for no stimulation (buffer) and full stimulation (1 μM of dopamine) of 0% and 100%. stimulation, respectively. Test compound potency (EC50) was estimated by nonlinear regression using the sigmoidal dose-response (variable slope) using Xlfit 4 (IDBS, Guildford, Surrey, UK, model 205).
as §1, with “normalized” for “normalized HTRF”, “from” for “from an”

[3] = PK experiments in rats: plasma compound (I) after oral dosing of prodrugs; type: in vivo, Han Wistar rats; conditions: Wistar rats, oral dosing of the prodrug
Method: Plasma was placed on water-ice following collection. Final storage at approximately −70° C.
Instrumentation Used for Analysis of Compound (I) from Dosing Compound (Ia):
Mobile phase B: Acetonitrile. […] Flow rate 0.5 mL/min.
The rats had unrestricted access to the diet.
Instrumentation Used for Analysis of Compound (I) from Dosing of Compound (Ib):
Mobile phase B: Acetonitrile+0.2% formic acid. […] Flow rate 0.3 mL/min.
Dosing and blood sampling for compound (Ic): Han Wistar rats were supplied by Envigo, UK. […] The rats received a standard laboratory diet Teklad 2014C. The rats had unrestricted access to the diet. […] Rats were given 494 μg/kg (Ic).

[4] = test system: locomotor activity; assay: Rat locomotor activity (hyperactivity) assay, open field; type: in vivo, male CD rats; conditions: for Onset of increased locomotor activity post-administration / End of locomotor effect, time post administration: (Id) 10 to 300 μg/kg p.o.; for End of locomotor effect, time post administration: recording to the 415-minute time point
Method: In total, 206 male CD rats (Charles River, Germany) weighing 200-250 grams (165-190 grams upon arrival) were used in the study. Animals were housed at a standard temperature (22±1° C.) and in a light-controlled environment (lights on from 7 am to […]) with ad libitum access to food and water. The experiment described below was performed in accordance with the standard operating procedures of Charles River Discovery Research Services Finland Ltd. and in accordance with the national Animal Experiment Board of Finland (Eläinkoelautakunta, ELLA) authority on animal testing.
The test device is a square Plexiglass-arena (measuring 40×40×40 cm), in which the movement paths of the rats are recorded by an activity monitor (Med. Associates Inc.). Before the test period is initiated, rats are habituated to their test cage for 60 minutes. Upon completion of habituation, animals were treated with either compound or vehicle and placed back into the open field apparatus. The main test parameter measured is ambulatory distance (recorded in 5 minute segments). Overall time of measurement after receiving initial treatment was 360 minutes. Total follow up period in the study was 420 minutes, including 60 minutes of habituation.
Apomorphine and pramipexole were also concomitantly tested in this assay as comparators (i.e. known standard-of-care (SoC) in the Parkinson's Disease field), and plasma concentration was analyzed for apomorphine.

[5] = Conversion of compound (Id) to compound (I) in rat hepatocytes; type: in vitro ADME; conditions: 1 μg/mL, 37° C., up to 60 minutes
Method: (§2) The cell concentration at incubation was 1×10^6 viable cells/mL. The incubations were performed in glass tubes at 37° C. with a total incubation volume of 3.5 mL and with duplicate incubations for each test item. The 3.5 mL of hepatocyte suspension was equilibrated for 10 minutes in a water bath set to 37° C. where after the incubations were initiated by adding 3.5 μL of a stock solution of the test item in DMSO (Dimethyl sulfoxide) and gently inverting the tubes. The final solvent concentration in the incubations was 0.1% DMSO. Samples of 600 μL were withdrawn from the incubations at the pre-determined time points of 0.25, 5, 15, 30 and 60 minutes after ensuring homogeneity of hepatocyte suspensions. The withdrawn volume was added to 1 mL Nunc cryotubes on wet ice containing 60 μL of ice-cold ascorbic acid (100 mg/mL) and 30 μL of ice cold 100 mM saccharic acid 1.4-lactone in 0.5 M citric acid. The tubes were mixed and 35 μL of a solution of ice cold 20% formic acid was added. The tubes were mixed thoroughly and stored at −80° C. awaiting analysis.

[6] = Conversion of compound (Id) to compound (I) in human hepatocytes; type: in vitro ADME; conditions: 1 μg/mL, 37° C., up to 60 minutes
Method: as §2

[7] = Conversion of compound (Id) to compound (I) in fresh rat blood; type: in vitro ADME; conditions: 1 μg/mL, 37° C., up to 60 minutes
Method: (§3) Conversion of (Id) in human blood (average of 3 donors) and rat blood (average of […]) to (1) was shown in fresh blood at 37° C. spiked with 1 μg/mL of (Id). (1) was measured at 0, 5, 15, 30 and 60 minutes in isolated plasma. Analysis method and Instrumentation as described in Examples 9 and 10 below in the section “Instrumentation used for analysis of compound (I) from dosing of compounds (Ic) and (d).”

[8] = Conversion of compound (Id) to compound (I) in fresh human blood; type: in vitro ADME; conditions: 1 μg/mL, 37° C., up to 60 minutes
Method: as §3

[9] = In vivo conversion of compound (Id) to compound (I) after oral dosing in minipigs
[10] = target: human 5-HT2B receptor (Homo sapiens (Human), UniProt P41595); assay: 5-HT2B agonist activity assay (IP1 production, HTRF); type: cell-based; conditions: for EC50: CHO cells expressing human 5-HT2B, IP1 production; for 5-HT2B agonist effect at single concentration: percent of control response to 1 μM 5-HT
Sequence of human 5-HT2B receptor (P41595 whole entry): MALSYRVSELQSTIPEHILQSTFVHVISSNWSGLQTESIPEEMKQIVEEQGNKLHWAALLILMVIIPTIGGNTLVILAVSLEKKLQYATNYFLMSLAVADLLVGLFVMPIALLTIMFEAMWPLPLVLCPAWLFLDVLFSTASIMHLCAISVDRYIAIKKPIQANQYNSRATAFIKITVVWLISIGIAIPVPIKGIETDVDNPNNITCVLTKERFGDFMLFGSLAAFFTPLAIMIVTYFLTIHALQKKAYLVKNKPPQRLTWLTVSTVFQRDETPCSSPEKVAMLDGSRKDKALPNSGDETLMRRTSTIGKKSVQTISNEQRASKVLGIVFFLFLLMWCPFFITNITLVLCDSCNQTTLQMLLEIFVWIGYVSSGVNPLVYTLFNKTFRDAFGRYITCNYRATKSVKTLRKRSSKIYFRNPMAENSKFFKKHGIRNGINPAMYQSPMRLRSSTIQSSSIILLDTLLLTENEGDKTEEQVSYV
Method: Evaluation of the agonist activity of compounds (I), (Ia)(Ib), (Ic), and (Id) at the human 5-HT2B receptor was performed by Eurofins/Cerep (France) measuring the compound effects on inositol monophosphate (IP1) production using the HTRF detection method. Briefly, the human 5-HT2B receptor was expressed in transfected CHO cells. The cells were suspended in a buffer containing 10 mM Hepes/NaOH (pH 7.4), 4.2 mM KCl, 146 mM NaCl, 1 mM CaCl2, 0.5 mM MgCl2, 5.5 mM glucose and 50 mM LiCl, then distributed in microplates at a density of 4100 cells/well and incubated for 30 minutes at 37° C. in the presence of buffer (basal control), test compound or reference agonist. For stimulated control measurement, separate assay wells contained 1 μM 5-HT. Following incubation, the cells were lysed and the fluorescence acceptor (fluorophen D2-labeled IP1) and fluorescence donor (anti-IP1 antibody labeled with europium cryptate) were added. After 60 minutes at room temperature, the fluorescence transfer was measured at lambda (Ex) 337 nm and lambda(Em) 620 and 665 nm using a microplate reader (Rubystar, BMG). The IP1 concentration was determined by dividing the signal measured at 665 nm by that measured at 620 nm (ratio). The results were expressed as a percent of the control response to 1 μM 5-HT. The standard reference agonist was 5-HT, which was tested in each experiment at several concentrations to generate a concentration-response curve from which its EC50 value is calculated as described above for dopamine functional assays.

[11] = Liu et al., Bioorganic Med. Chem. (2008); cited from earlier work
[12] = in man after oral dosing; cited from earlier work
[13] = HEK-293 cells expressing human D1 receptor, cAMP HTRF, read-out: D1 EC50
[14] = apomorphine 3 mg/kg s.c., pramipexole 0.3 mg/kg s.c.

Sequence of human D1 receptor (P21728 whole entry): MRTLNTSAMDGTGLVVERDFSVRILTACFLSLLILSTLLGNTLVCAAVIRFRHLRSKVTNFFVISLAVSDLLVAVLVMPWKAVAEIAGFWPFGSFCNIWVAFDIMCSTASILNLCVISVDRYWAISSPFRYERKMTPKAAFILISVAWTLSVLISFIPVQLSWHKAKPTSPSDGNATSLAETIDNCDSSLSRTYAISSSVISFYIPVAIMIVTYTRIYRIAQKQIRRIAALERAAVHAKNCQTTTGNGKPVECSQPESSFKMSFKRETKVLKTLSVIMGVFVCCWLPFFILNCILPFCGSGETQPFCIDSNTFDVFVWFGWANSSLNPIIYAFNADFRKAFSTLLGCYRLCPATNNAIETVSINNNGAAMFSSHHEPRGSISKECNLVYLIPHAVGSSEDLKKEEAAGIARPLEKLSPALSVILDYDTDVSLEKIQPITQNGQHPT

Compound | EC50 [1, 13] | EC50 [2] | Plasma profile of compound (I) after oral dosing (in words) [3] | Onset of increased locomotor activity post-administration [4, 14] | EC50 [10] | also measured
CCCN1CCC[C@@H]2Cc3c(ccc(O)c3O[C@@H]3O[C@H](C(=O)O)[C@@H](O)[C@H](O)[C@H]3O)C[C@H]21 [Compound (Id), (2S,3S,4S,5R,6S)-3,4,5-trihydroxy-6-(((4aR,10aR)-7-hydroxy-1-propyl-1,2,3,4,4a,5,10,10a-octahydrobenzo[g]quinolin-6-yl)oxy)tetrahydro-2H-pyran-2-carboxylic acid] | 2.7 µM | 1.1 µM | slower absorption rate avoiding rapid peak concentrations accompanied by a sustained exposure of compound (I) in plasma | ~2 h | – | End of locomotor effect, time post administration ([4]; apomorphine 3 mg/kg s.c.): lasting until the end of recording; Total distance travelled ([4]; versus vehicle, (Id) 10-300 μg/kg p.o., apomorphine 3 mg/kg s.c., pramipexole 0.3 mg/kg s.c.): significantly increased activity; Conversion to compound (I) [5]: time dependent conversion; Conversion to compound (I) [6]: time dependent conversion; Conversion to compound (I) [7]: time dependent conversion; Conversion to compound (I) [8]: time dependent conversion; In vivo conversion to compound (I) [9]: observed
CCCN1CCC[C@@H]2Cc3c(ccc(O)c3O)C[C@H]21 [Compound (I), (4aR,10aR)-1-Propyl-1,2,3,4,4a,5,10,10a-octahydro-benzo[g]quinoline-6,7-diol] | 0.0033 µM | 0.0013 µM | – | – | 2.9 µM | Oral bioavailability (in words) [11]: low oral bioavailability
CCCN1CCC[C@@H]2Cc3c(ccc(OC(=O)C(C)(C)C)c3OC(=O)C(C)(C)C)C[C@H]21 [(Ic)] | – | – | extremely low | – | – | 5-HT2B agonist effect at single concentration ([10]; @10 μM): −5%@10 μM
CCCN[C@H]1CCc2nc(N)sc2C1 [Pramipexole, pramipexole] | – | – | – | about 1 hours | – | Locomotor effect gone, time after its appearance ([4]; pramipexole 0.3 mg/kg s.c., at the 270-minute time point): 2.5 h
CCCN1CCC[C@@H]2Cc3c(ccc4c3OCO4)C[C@H]21 [Compound (Ib)] | – | 0.046 µM | early and high peak concentrations of compound (I) | – | 0.0038 µM | EC50 [1]: > 1 µM; 5-HT2B receptor agonism (in words) [10]: agonist of the 5-HT2B receptor
CN1CCc2cccc3c2[C@H]1Cc1ccc(O)c(O)c1-3 [apomorphine] | – | – | – | immediate | – | End of locomotor effect, time post administration ([4]; apomorphine 3 mg/kg s.c.): 1.5 h
CCCN1CCC[C@@H]2CC3=C(CCCC3=O)C[C@H]21 [Compound (Ia)] | > 1 µM | > 1 µM | early and high peak concentrations of compound (I) | – | > 6 µM | 5-HT2B agonist effect at single concentration ([10]; @30 μM): 58%
CCCc1cc2c(s1)CN[C@@H]1CCc3cc(OC(C)=O)c(OC(C)=O)cc3[C@@H]21 [adrogolide] | – | – | – | – | – | Oral bioavailability [12]: ~4%
